Assays:
[1] = system: LN18; experiment: MTT cell viability assay; assay type: cell-based, human; details: LN18 cells
Experimental: (§1) The cells used in the present examples were human glioblastoma multiforme (GBM) cell lines, purchased from the American Type Culture Collection (ATCC, Manassas, VA, USA). These cell lines were LN18 (ATCC®, CRL-2610™), U87 (ATCC®, HTB-14™), T98G (ATCC®, CRL-1690™) and M059K (ATCC®, CRL-2365™). All cells were grown in RPMI 1640 without phenol red, supplemented with 10% fetal bovine serum (FBS) and penicillin/streptomycin at 37 °C in a 5% CO2 and 95% humidified atmosphere.
(§2) The cells were incubated with 5, 10 and 20 mM 5-ALA for three days and each day the effect of 5-ALA on their viability was assessed by standard MTT assays at 24, 48 and 72h following incubation. The results are shown in Figure 5 (Error bars represent one SD).

[2] = system: U87; experiment: MTT cell viability assay; assay type: cell-based, human; details: U87 cells
Experimental: as §1, §2

[3] = system: T98G; experiment: MTT cell viability assay; assay type: cell-based, human; details: T98G cells; 10mM 5-ALA; after 72h incubation
Experimental: as §1, §2

[4] = system: LDH present in cell lysates, T98G; experiment: Spectrophotometric LDH kinetics (NADH absorbance at 340 nm), cell lysates; assay type: biochemical, human; details: 0.75 mM 5-ALA, no inhibitor: -1.20
Experimental: as §1
(§3) A. enzyme solutions. 0.5 mL of an aqueous LDH solution was mixed with 0.5 mL reaction buffer to start the LDH reduction of pyruvate. The final LDH concentration was always 5 µM. […] The final concentration of 5-ALA in the total volume of the reaction mix (1 mL) was 5 mM for 5-ALA. In the enzymatic assays LDH refers to the LDH-A isoform.
(§4) In the second phase of the experiments, the enzymatic activity of LDH present in cell lysates was investigated.
(§5) Cell lysates were obtained from LN18, T98G, U87 and M059K GBM cells. In brief, cells from confluent T175 flasks were harvested with the use of TrypLE™ Express Enzyme (Gibco, REF# 12604021) and resuspended in ddH2O with Triton™ X-100 (0,25%). The cell lysate measurements were performed according to the enzymatic solution measurents, however in this case, cell lysates equivalent to […] were each time added to the H2O half of the reaction mix. […]

[5] = system: LDH present in cell lysates, M059K; experiment: as above; assay type: biochemical, human; details: 0.75 mM 5-ALA, no inhibitor: -1.47
Experimental: as §1, §3, §4, §5

[6] = system: LN18; experiment: Seahorse XFe96 metabolic assay (OCR/ECAR), in-situ injection of 5-ALA; assay type: cell-based, human; details: LN18 cells; 5-ALA 500 - 1000 µM injected in situ; Figure 1
Experimental: as §1
(§6) In order to study the changes in cell metabolism in GBM cells following the in-situ addition of 5-ALA, the Seahorse XFe96 analyzer (Agilent Technologies) was employed. Briefly, 4×10^4 cells were seeded in a seahorse plate and incubated overnight in complete RPMI 1640 medium at 37 °C, and a 5% CO2 humidified atmosphere. One hour prior to the experiments, the cells had their media changed to unbuffered XF RPMI pH 7.4 medium supplemented with 10 mM glucose, 2 mM L-glutamine, and 2 mM sodium pyruvate and were incubated for one hour at 37 °C, 0% CO2 atmosphere. The basal oxygen consumption and media acidification rates (OCR and ECAR respectively) of the cell groups were measured in four cycles. After those four cycles injections of i) 5-ALA (500 - 1000 µM), ii) Oligomycin A (OLIGO) 1 µM, iii) Carbonyl cyanide 4-(trifluoromethoxy)phenylhydrazone (FCCP) 1 µM and iv) Antimycin A (ANTI A) and Rotenone (ROT) 2 µM each were sequentially performed for 3 measurement cycles each.

[7] = system: U87; experiment: as above; assay type: cell-based, human; details: U87 cells; 5-ALA 500 - 1000 µM injected in situ; Figure 1
Experimental: as §1, §6

[8] = system: T98G; experiment: as above; assay type: cell-based, human; details: T98G cells; 5-ALA 500 - 1000 µM injected in situ; Figure 1
Experimental: as §1, §6

[9] = system: MO59K; experiment: as above; assay type: cell-based, human; details: MO59K cells; 5-ALA 500 - 1000 µM injected in situ; Figure 1
Experimental: as §1, §6

[10] = target: LDH-A isoform (Homo sapiens, UniProt P00338); experiment: Spectrophotometric LDH kinetics (NADH absorbance at 340 nm), enzyme solution
[11] = system: M059K; experiment: Seahorse XF Real-Time ATP Rate Assay; assay type: cell-based, human; details: M059K cells; 1000µM of 5-ALA; change versus control
Experimental: as §1, §6
(§7) The ATP contributions of mitochondrial respiration and cell glycolysis in U87, T98G, M059K and LN18 human GBM cells in the presence or absence of 5-ALA, were deconvoluted quantified by use of the Seahorse XF Real-Time ATP Rate Assay Kit. In brief the same protocol as in Example 1 was followed without the injection of FCCP and with only three basal measurement cycles, while the corresponding final concentrations of OLIGO and ROT/ANTI A were this time 1.5 and 0.5 µM. The ATP rates were determined with use of the Agilent Seahorse XF Real-Time ATP Rate Assay Report Generator.
(§8) The wells in the bottom row of the seahorse plates were in all cases left devoid of cells and were used as blank values. These were automatically subtracted by the Seahorse analyser software.
(§9) The changes in ATP production from either respiration or glycolysis were evaluated upon addition of 1000µM of 5-ALA.

[12] = system: LN18; experiment: Seahorse XF Real-Time ATP Rate Assay; assay type: cell-based, human; details: LN18 cells; 1000µM of 5-ALA; change versus control
Experimental: as §1, §6, §7, §8, §9

[13] = system: U87; experiment: Seahorse XF Real-Time ATP Rate Assay; assay type: cell-based, human; details: U87 cells, 1000µM of 5-ALA, change versus control
Experimental: as §1, §6, §7, §8, §9

[14] = system: T98G; experiment: Seahorse XF Real-Time ATP Rate Assay; assay type: cell-based, human; details: T98G cells; 1000µM of 5-ALA; change versus control
Experimental: as §1, §6, §7, §8, §9

[15] = system: LDH present in cell lysates, U87; experiment: Spectrophotometric LDH kinetics (NADH absorbance at 340 nm), cell lysates; assay type: biochemical, human; details: 0.75 mM 5-ALA, no inhibitor: -1.43
Experimental: as §1
(§10) A. enzyme solutions. 0.5 mL of an aqueous LDH solution was mixed with 0.5 mL reaction buffer to start the LDH reduction of pyruvate. The final LDH concentration was always 5 µM.

[16] = system: LDH present in cell lysates, Ln18; experiment: as above; assay type: biochemical, human; details: 0.75 mM 5-ALA, no inhibitor: -1.48
Experimental: as §1, §10

[17] = 10mM 5-ALA, all time points (24, 48 and 72h)
[18] = 20 mM 5-ALA, compared with the 90-98% reduction at 10mM

Structure (SMILES): NCC(=O)CCC(=O)O [5-ALA, 5-Aminolevulinic acid]
- reduction in cell viability [1, 17]: 90-98%
- reduction in cell viability [1, 18]: in general, maintained
- reduction in cell viability [2, 17]: 90-98%
- reduction in cell viability [2, 18]: in general, maintained
- lethality level reached (cell viability) [3]: LD40
- initial slope of NADH absorbance curve (LDH Vmax for the cell lysate volume studied) [4]: -0.57
- initial slope of NADH absorbance curve (LDH Vmax for the cell lysate volume studied) [5]: -0.53
- glycolytic activity [6]: drop in the glycolytic activity of those cell lines which was dose dependent
- glycolytic activity [7]: drop in the glycolytic activity of those cell lines which was dose dependent
- glycolytic activity [8]: drop in the glycolytic activity of those cell lines which was dose dependent
- glycolytic activity [9]: drop in the glycolytic activity of those cell lines which was dose dependent
- initial slope of NADH absorbance curve (corresponds to Vmax of the enzyme) ([10]; Enzyme solution, 5 mM 5-ALA, first 5 data points (8 sec), pH 6.5, no inhibitor: -2.28): -0.51
- activity at 5000 µM ([10]; read-out: enzyme function as % of its Vmax): ~22%
- reduction in glycolytic ATP production [11]: ~ -250 pmole/min
- reduction in glycolytic ATP production [12]: ~-140 pmol/min
- reduction in glycolytic ATP production [13]: ~-200 pmol/min
- increase in mitochondrial respiration-derived ATP ([13]; marginally significant): ~ 100 pmole/min
- reduction in glycolytic ATP production [14]: ~-200 pmol/min
- initial slope of NADH absorbance curve (LDH Vmax for the cell lysate volume studied) [15]: -0.32
- initial slope of NADH absorbance curve (LDH Vmax for the cell lysate volume studied) [16]: -0.47

Reference: patent EP4306108A1, “5-AMINOLEVULINIC ACID, OR AN ESTER THEREOF FOR USE IN TREATMENT OF CANCER BASED ON THE INHIBITION OF LACTATE DEHYDROGENASE” (Theodossiou, Theodossis, priority 2022, dated 2024)
